Consider 23 compounds from ChEMBL document CHEMBL2380236, “Core refinement toward permeable β-secretase (BACE-1) inhibitors with low hERG activity” (J Med Chem, 2013).

The nature of data set [1]: in vivo. The following applies: C57BL/6, mouse, brain and plasma, po.
A short description of data set [2]: in vivo. The following applies: C57BL/6, mouse, brain, po.
The nature of data set [3]: in vivo. The following applies: C57BL/6, mouse, plasma, po.
Data set [4] in a line: physchem.
Data set [5] is described as follows: in vivo. The following applies: C57BL/6, mouse, brain and plasma, po. This is another data set of the same source.
Data set [6] is described as follows: in vitro. The following applies: human, Caco-2, pH 7.4, Papp.
The nature of data set [7]: physchem. This is another data set of the same source.
Data set [8] in a line: in vivo. The following applies: C57BL/6, mouse, brain and plasma, iv.
Data set [9] is described as follows: in vivo. The following applies: C57BL/6, mouse, plasma, iv.
Data set [10] is described as follows: in vivo. The following applies: C57BL/6, mouse, brain and plasma, iv. The source holds these as a separate data set.
A short description of data set [11]: in vivo. The following applies: C57BL/6, mouse, brain, iv.

In data set [1], `COc1cccc(-c2cccc(C3(C)CCSC(N)=N3)c2)c1` (stereo not given) registered a Kp uu at […] of 0.64. In addition, the fraction unbound at […] in [2] stood at 0.005; in data set [3], 0.07. Besides, in data set [4], the chromatographic logD is 2.5. In addition, the Kp at […] in data set [5] worked out at 8.9. In data set [6], this compound had a Papp A→B at 10 µM of 72 ×10⁻⁶ cm/s. Further, the pKa in data set [7] turned out to be 7.

`CC1(c2cccc(-c3cncnc3)c2)N=C(N)c2c(F)cccc2O1` (stereo not given) displayed a chromatographic logD in data set [4] of 1.6. For the same compound, the Papp A→B at 10 µM in data set [6] stood at 39 ×10⁻⁶ cm/s. Also, the pKa in data set [7] was 6.9.

In data set [4], `COc1cccc(-c2cccc(C3(C)COCC(N)=N3)c2)c1` (stereo not given) came in with a chromatographic logD of 2.1. Besides, the Papp A→B at 10 µM in data set [6] is 20 ×10⁻⁶ cm/s. The pKa in data set [7] was 9.8.

`CC1(c2cccc(-c3cccnc3)c2)N=C(N)c2ccccc2O1` (stereo not given) displayed a chromatographic logD in data set [4] of 1.8. Also, the Papp A→B at 10 µM in [6] amounted to 17 ×10⁻⁶ cm/s. The compound further registered a pKa in data set [7] of 8.2.

Take `COc1cccc(-c2cccc(C3(c4ccncc4)N=C(N)CS3)c2)c1` (stereo not given): the pKa in data set [7] is 5.4.

The compound `COc1cccc(-c2cccc(C3(C)N=C(N)CCO3)c2)c1` (stereo not given) returned a chromatographic logD in [4] of 2.5. Further, the Papp A→B at 10 µM in [6] turned out to be 13 ×10⁻⁶ cm/s. The compound also displayed a pKa in data set [7] of 9.3.

In the case of `COc1ccc(C2(c3cccc(-c4cncnc4)c3)N=C(N)n3nc(C)cc32)cc1` (stereo not given), in data set [4], the chromatographic logD was found to be 2.3. Moreover, in data set [6], the Papp A→B at 10 µM was 30 ×10⁻⁶ cm/s. Also, in [7], the pKa came out at 5.4.

In turn, `COc1ccc(C2(c3cccc(-c4cccnc4)c3)CC(OC)C(N)=N2)cc1` (stereo in doubt; form 4) had a chromatographic logD in data set [4] of 1.8.

For `CCC1(c2cccc(-c3cncnc3)c2)N=C(N)c2ccccc2O1` (stereo not given), in data set [4], the chromatographic logD came to 1.8. Besides, the pKa in [7] came out at 8.4.

Consider `COc1cccc(-c2cccc(C3(C)CSCC(N)=N3)c2)c1` (stereo not given), for which the pKa in [7] is 10.5.

For the compound `CC1(c2cccc(-c3cccnc3)c2)N=C(N)c2c(F)cccc2O1` (stereo not given), the chromatographic logD in data set [4] stood at 2.3. The compound further yielded a Papp A→B at 10 µM in data set [6] of 23 ×10⁻⁶ cm/s. In [7], the pKa came out at 7.

As for `COc1ccc(C2(c3cccc(-c4cccnc4)c3)N=C(N)CS2)cc1` (stereo not given), the Kp uu at […] in data set [8] was found to be 1.3. In addition, the chromatographic logD in data set [4] was determined as 2.9. For the same compound, the fraction unbound at […] came to 0.007 in [9] and 0.01 in data set [11]. In data set [10], the Kp at […] came to 0.9. This compound also returned a Papp A→B at 10 µM in data set [6] of 19 ×10⁻⁶ cm/s. Moreover, in data set [7], the pKa came out at 6.2.

As to `COc1cccc(-c2cccc(C3(C)N=C(N)CS3)c2)c1` (stereo not given), the chromatographic logD in data set [4] is 3.6. This compound displayed a Papp A→B at 10 µM in [6] of 15 ×10⁻⁶ cm/s. In [7], this compound returned a pKa of 6.9.

`CC1(c2cccc(-c3cncnc3)c2)N=C(N)CCS1` (stereo not given): the Kp uu at […] in [8] worked out at 0.27. Moreover, in [4], the chromatographic logD was under 0. The values for the fraction unbound at […] in data set [9] and in data set [11] were 0.89 and 0.074, respectively. The Kp at […] in [10] was 1.4. In data set [6], this compound showed a Papp A→B at 10 µM of 21 ×10⁻⁶ cm/s. Moreover, the pKa in data set [7] came to 9.1.

Compound `CC1(c2cccc(-c3cncnc3)c2)N=C(N)c2ccccc2O1` (stereo not given) displayed a chromatographic logD in data set [4] of 1.2. The compound further had a Papp A→B at 10 µM in data set [6] of 31 ×10⁻⁶ cm/s. Besides, in data set [7], the pKa was 8.1.

On to `COc1ccc(C2(c3cccc(-c4cncnc4)c3)N=C(N)c3nc(C)sc32)cc1` (stereo not given), for which the Kp uu at […] in data set [1] turned out to be 0.04. For the same compound, the fraction unbound at […] was found to be 0.02 in data set [2] and 0.1 in data set [3]. The same compound had a chromatographic logD in [4] of 2. For the same compound, the Kp at […] in [5] amounted to 0.2. The same compound returned a Papp A→B at 10 µM in data set [6] of 18 ×10⁻⁶ cm/s. The compound also showed a pKa in data set [7] of 8.

In turn, `COc1ccc(C2(c3cccc(-c4cncnc4)c3)CCC(N)=N2)cc1` (stereo not given) registered a chromatographic logD in data set [4] of 0.9. In addition, the Papp A→B at 10 µM in data set [6] is under 0.3 ×10⁻⁶ cm/s. The compound further returned a pKa in data set [7] of 10.

Take `CC1(c2cccc(-c3cncnc3)c2)N=C(N)c2ccccc2S1` (stereo not given): in data set [4], the chromatographic logD amounted to 1.7. Besides, the Papp A→B at 10 µM in data set [6] stood at 39 ×10⁻⁶ cm/s. The same compound had a pKa in data set [7] of 8.3.

For `C[C@]1(c2cccc(-c3cncc(F)c3)c2)N=C(N)[C@H]2CCCCN21` (relative stereo), the chromatographic logD in data set [4] was found to be 2. In data set [7], this compound had a pKa of 9.2.

For `COc1cccc(-c2cccc(C3(C)N=C(N)CN3C(C)=O)c2)c1` (stereo not given), in [4], the chromatographic logD was determined as 1.4. This compound also yielded a Papp A→B at 10 µM in [6] of 16 ×10⁻⁶ cm/s. For the same compound, the pKa in [7] amounted to 6.5.

For `C[C@]1(c2cccc(-c3cncc(F)c3)c2)N=C(N)[C@@H]2CCCCN21` (relative stereo), the chromatographic logD in [4] is 1.5.

The compound `CC1(c2cccc(-c3cccc(Cl)c3)c2)N=C(N)CCO1` (stereo not given) gave a chromatographic logD in data set [4] of 3.3. This compound came in with a Papp A→B at 10 µM in data set [6] of 2.1 ×10⁻⁶ cm/s. This compound also had a pKa in [7] of 9.3.

As to `COc1cccc(-c2cccc(C3(C)N=C(N)CCS3)c2)c1` (stereo not given), in [4], the chromatographic logD came out at 2.5. In [6], this compound came in with a Papp A→B at 10 µM of 5.2 ×10⁻⁶ cm/s. For the same compound, the pKa in data set [7] is 9.3.
